Laboratory results taken from US12371666B2, “Nucleoside modified mRNA and uses thereof” (BOSTON MEDICAL CENTER CORPORATION, priority 2021, dated 2025).
Where two headings read alike, the source gives them in different places.

Tests used:
[1] = test system: BEC-driven liver regeneration; assay: BEC-driven liver regeneration in zebrafish hepatocyte ablation model Tg(fabp10a:CFP-NTR) with Mtz; assay type: in vivo
Protocol: Experiments on zebrafish: All zebrafish experiments were performed under the approval of the IACUC at the University of Pittsburgh. Embryos and adult fish were raised and maintained under standard laboratory conditions. The following transgenic lines were used: Tg(fabp10a:CFP-NTR)s931, Tg(Tp1:H2B-mCherry)s939, Tg(hs:sflt1)bns80, Tg(Tp1:CreERT2)s959, and Tg(hs:loxP-mCherry-loxP-hVEGFA)mn32.
Hepatocyte ablation using the Tg(fabp10a:CFP-NTR) line: Hepatocyte ablation was performed by treating Tg(fabp10a:CFP-NTR) larvae with 10 mM Mtz in egg water supplemented with 0.2% DMSO and 0.2 mM 1-phenyl-2-thiourea from 3.5 to 5 dpf for 36 hours, as previously described^9.
SU5416 treatment: SU5416 (MedChemExpress, Monmouth Junction, NJ) was used at 1.5 μM.
Heat-shock conditions for zebrafish larvae: Both Tg(hs:sflt1) and Tg(hs:loxP-mCherry-loxP-hVEGFA) larvae were heat-shocked by transferring them into egg water pre-warmed to 38.5° C. and keeping them at this temperature for 20 minutes, as previously described^10.
Whole-mount in situ hybridization and immunostaining in zebrafish: Whole-mount in situ hybridization was performed, as previously described^11, with gc^12 and f5 probes. […]
Quantification of Bhmt+ cell number and Bhmt+ area in the zebrafish liver: For the quantification of Bhmt+ cell number, confocal projection images consisting of 6 optical-section images, with 3-μm interval, were used. Bhmt+ and Tp1:H2B-mCherry+ cells were manually counted; the number of Bhmt/Tp:H2B-mCherry double-positive cells was divided by the number of Tp1:H2B-mCherry+ cells. For the quantification of Bhmt+ liver area, confocal projection images showing Bhmt and fabp10a:CFP-NTR expression were used. Both Bhmt^+ and fabp10a:CFP-NTR+ areas in the liver were calculated by ImageJ and the former area was divided by the latter.
Image acquisition, processing, and statistical analysis of zebrafish data: Zeiss LSM700 confocal and Leica MZ16 microscopes were used to obtain image data. Confocal stacks were analyzed using the Zen 2009 software. […] Quantitative data were shown as mean±standard error of the mean (SEM).

[2] = test system: Tg(fabp10a:CFP-NTR) larvae; assay: Zebrafish NTR/Mtz hepatocyte ablation model of BEC-driven liver regeneration; conditions: for size of regenerating livers: 2 μM, treatment from A0h to R24h
Text: a. […] In the Tg(fabp10a:CFP-NTR)^5931 zebrafish line, bacterial nitroreductase (NTR) is expressed under the hepatocyte-specific fabp10a promoter^2. Since the NTR enzyme converts the non-toxic prodrug, metronidazole (Mtz), into a cytotoxic drug^59, 60 treating the transgenic zebrafish with Mtz specifically ablates hepatocytes. In this model, upon severe hepatocyte loss, BECs first dedifferentiate into LPCs, then re-differentiate into either hepatocytes or BECs, thereby leading to full liver recovery^2.
b. […] Upon targeted chemical screening using the NTR/Mtz model^61, the inventors examined the effect of VEGFR2 inhibition on BEC-driven liver regeneration. The inventors used the Notch reporter line Tg(Tp1:H2B-mCherry)^939 that expresses H2B-mCherry fusion proteins in BECs.
c. […] Given that VEGFR2 functions via at least two major signaling branches, PI3K/AKT and MEK/ERK1/2, the inventors tested which downstream branch controls BEC-driven liver regeneration using their specific inhibitors (LY294002 for PI3K and U0126 for MEK1/2). […] Given the well-known cascade of PI3K-AKT-mTOR, the inventors further examined mTOR activity in the regenerating livers.

[3] = test system: BEC-driven liver regeneration; conditions: earlier chemical screen of the inventors; cited from earlier work
[4] = b-estradiol treatment of males in APAP liver injury, serum ALT; assay type: in vivo, mouse; conditions: IP 0.5 mg/kg in corn oil, 24 hours following APAP injection
[5] = test system: centrilobular necrosis; assay: APAP-NSG liver injury model dose test; conditions: NSG mice, 24 h after injection
[6] = test system: APAP-induced liver injury; assay: Acetaminophen-induced liver injury in male and female C57BL/6J mice
Protocol: Images from stained sections were visualized and measured at 40× magnification on ImageJ™ (FIJI) using the area measurement tool. 2-3 lobes were measured and averaged per mouse.

[7] = test system: APAP-induced liver injury; assay type: in vivo; conditions: for survival: GH 2.5 mg/kg or NAC 1000 mg/kg 8 hours post-APAP
Protocol: Acetaminophen-induced liver injury mouse model.
GH and NAC were both diluted in sterile PBS. GH was diluted to a concentration of 1 mg/mL and given at dosage indicated, subcutaneously with a 0.5 mL insulin syringe. NAC was diluted to a concentration of 50 mg/mL and given at 1000 mg/kg dosage, intraperitoneally with a 1 mL insulin syringe.
The statistical analyses for the graphs were carried out using two-sided student's t test for unpaired comparisons with GraphPad Prism™. The statistical analyses for the Kaplan-Meier survival curves were carried out using the Log-rank Mantel-Cox test with GraphPad Prism. A p value<0.05 was considered significant, ***<0.0001, **<0.001, *<0.05, n.s. or no result=not significant.

[8] = intravenous NAC; cited from earlier work
[9] = test system: liver sex-biased genes; conditions: rat GH 25 ng/g BW/hr by minipump, male mice; cited from earlier work

In the case of `Cc1cc(C)c(/C=C2\C(=O)Nc3ccccc32)[nH]1` [SU5416], the “LPC-to-hepatocyte differentiation defect by gc and f5 expression” value ([1]; R24h) is reported as “This defect was confirmed”, the “expression of the hepatocyte marker Bhmt” value ([1]; R24h, SU5416 from A18h to R24h) is reported as “greatly suppressed the expression of the hepatocyte marker Bhmt” and the “size of regenerating livers” value ([1]; SU5416 1.5 μM from A18h to R24h) is reported as “significantly reduced the size of regenerating livers”. For the same molecule, the “size of regenerating livers” value [2] was “significantly reduced the size of regenerating livers”, the “expression of Prox1 and Hnf4a in LPCs” value ([2]; R6h) was “normal expression of Prox1 and Hnf4a” and the “pS6 expression in LPCs (mTORC1 activation)” value ([2]; R6h regenerating livers) was “absent”. For the same molecule, the “expression of fabp10a:CFP-NTR” value ([2]; R24h) was “very weak expression”, the “expression of the hepatocyte marker Bhmt” value ([2]; R24h) was “almost no expression” and the “induction of early hepatocyte markers Prox1 and HNF4α in BEC-derived LPCs” value [3] was “did not affect”. The “size of regenerating livers” value [3] was “significantly reduced the size of regenerating livers”.

In the case of `C[C@]12CC[C@@H]3c4ccc(O)cc4CC[C@H]3[C@@H]1CC[C@@H]2O` [b-estradiol], the ALT levels [4] is reported as “significantly decreased ALT levels”.

In the case of `CN(C)c1ccc(/C=C2\C(=O)Nc3ccccc32)cc1` [SU4312], the “size of regenerating livers” value [2] is given as “significantly reduced the size of regenerating livers”, the “induction of early hepatocyte markers Prox1 and HNF4α in BEC-derived LPCs” value [3] is given as “did not affect” and the “size of regenerating livers” value [3] is given as “significantly reduced the size of regenerating livers”.

In the case of `CC(=O)Nc1ccc(O)cc1` [APAP, acetyl-para-aminophenol], the liver damage ([5]; 200 mg/Kg) is reported as “mild”, the liver damage ([5]; 400 mg/kg) is reported as “severe damage and ultimately death” and the “necrosis (H&E), males vs females” value ([6]; 400 mg/kg) is reported as “more extensive in male livers and progressively increased overtime, whereas female livers fully recovered by 48 hours”. The “serum bilirubin, males vs females” value ([6]; 400 mg/kg) was “persisted for 96 hours in males but decreased after 48 hours in females”, the injury and lethality ([6]; 400 mg/kg intraperitoneally, both sexes) was “induces injury in both sexes without lethality up to 96 hours” and the “serum ALT levels, males vs females” value ([6]; 400 mg/kg, time points post-24 hours) was “consistently higher in males than in females”.

For `CC(=O)N[C@@H](CS)C(=O)O` [NAC, N-acetyl cysteine], the survival ([7]; females) was “all females survived regardless of the treatment”, the necrotic tissue ([7]; females, NAC 1000 mg/kg) was “did not show the beneficial effect of reducing necrotic tissue” and the necrotic areas ([7]; males that survived 24 hours post-APAP, NAC 1000 mg/kg) was “significantly diminished”. For the same molecule, the “apoptotic TUNEL+ area” value ([7]; males, 24 hours post-APAP) was “significantly diminished”, the survival ([7]; males, 48 hours post-APAP) was “all NAC-treated males died by 48 hours post-APAP” and the “patients with anaphylactoid reaction” value [8] was “up to 18%”.

B1: cGH: rat recombinant GH given by continuous infusion via osmotic minipump (protein, UniProt P01244 27-216, looked up)
Somatotropin: FPAMPLSSLFANAVLRAQHLHQLAADTYKEFERAYIPEGQRYSIQNAQAAFCFSETIPAPTGKEEAQQRTDMELLRFSLLLIQSWLGPVQFLSRIFTNSLMFGTSDRVYEKLKDLEEGIQALMQELEDGSPRIGQILKQTYDKFDANMRSDDALLKNYGLLSCFKKDLHKAETYLRVMKCRRFAESSCAF
For B1, the “liver sex-biased genes whose expression is feminized” value [9] is listed as 92%.
